This passage reports drug sensitivity score results from the supplement of paper PMC8633005.

Holding throughout (experiment): drug sensitivity score (DSS) (DSS (unitless, 0-50 scale)); higher = more sensitive (stronger viability inhibition); extreme values may be limits of the assay
Holding throughout (settings): 72 h; culture: 2D

One experiment deals with Bowes. A digest of the protocol: (§1)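 A 527-compound oncology library was screened in 384-well plates against melanoma cell lines and patient-derived melanoma cultures grown in 2D, the cultures at 1000–1500 cells per well. Each compound, in DMSO or water, was applied at five concentrations over a 10,000-fold range and incubated for 72 h at 37 °C before CellTiter-Glo luminescence readout of viability. A drug sensitivity score, a modified area-under-curve measure, was calculated from curves fitted in the in-house Breeze software.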

A further experiment deals with FM-MEL-2. The procedure, abridged: as §1
For a further experiment, the system named is FM-MEL-3. The procedure, abridged:
as §1

The next experiment relates to FM-MEL-6. The procedure, abridged:
as §1

The next experiment deals with SK-MEL-28. A digest of the protocol: as §1
The next experiment relates to SK-MEL-2. A digest of the protocol: as §1
The test system of the next experiment is WM165. The procedure, abridged:
as §1

Another experiment concerns WM852. The procedure, abridged:
as §1

Molecules are shown by their SMILES.

With `CC[C@H](C)C(=O)O[C@H]1C[C@@H](C)C=C2C=C[C@H](C)[C@H](CC[C@@H]3C[C@@H](O)CC(=O)O3)[C@H]21` [Lovastatin], the drug sensitivity score with Bowes was found to be 2.1; in the experiment with FM-MEL-2, 0; in the experiment on FM-MEL-3, 0.1; in the experiment on FM-MEL-6 it was 0; in the experiment with SK-MEL-28, 0; in the experiment with SK-MEL-2 it was 0. In addition, the drug sensitivity score was found to be 1.8 in the experiment with WM165 and 0.6 in the experiment on WM852.
Turning to `CNC(=O)c1cccc2cc(Oc3ccnc4cc(OCC5(N)CC5)c(OC)cc34)ccc12` [Lucitanib], the drug sensitivity score stood at 5.4 in the experiment on Bowes; 0.3 in the experiment with FM-MEL-2; 0 in the experiment on FM-MEL-3; 1.3 in the experiment on FM-MEL-6; 0 in the experiment with SK-MEL-28; 0 in the experiment on SK-MEL-2. The drug sensitivity score was 1.6 in the experiment on WM165 and 2.2 in the experiment on WM852.
Take `CCNC(=O)c1noc(-c2cc(C(C)C)c(O)cc2O)c1-c1ccc(CN2CCOCC2)cc1` [Luminespib]: the drug sensitivity score in the experiment with Bowes was found to be 15.2; in the experiment on FM-MEL-2 it was 10.7; in the experiment on FM-MEL-3, 21.4; in the experiment on FM-MEL-6 it was 8.1; with SK-MEL-28, 9.2; with SK-MEL-2 it was 9.3. Also, the drug sensitivity score in the experiment with WM165 was found to be 20.3; in the experiment on WM852, 9.7.
With `O=C(O)CC[C@H]1CC[C@@](c2cc(F)ccc2F)(S(=O)(=O)c2ccc(Cl)cc2)CC1` [MK-0752], the drug sensitivity score in the experiment with Bowes, with FM-MEL-2, in the experiment on FM-MEL-3, in the experiment with FM-MEL-6, in the experiment with SK-MEL-28 and with SK-MEL-2 was 0 in each case. Besides, the drug sensitivity score in the experiment with WM165 and in the experiment with WM852 was 0 each time.
On to `NC1(c2ccc(-c3nc4ccn5c(=O)[nH]nc5c4cc3-c3ccccc3)cc2)CCC1` [MK-2206], for which the drug sensitivity score in the experiment on Bowes was found to be 0; with FM-MEL-2, 2.6; in the experiment on FM-MEL-3 it was 0.9; in the experiment on FM-MEL-6, 1.9; with SK-MEL-28, 2; in the experiment on SK-MEL-2 it was 0. The drug sensitivity score in the experiment on WM165 was determined as 1.1; in the experiment on WM852, 0.4.
Consider `O=C(c1cccc(Cl)c1F)N1CCN(Cc2cccc(Nc3nccs3)n2)CC1` [MK-8745], for which the drug sensitivity score in the experiment with Bowes was found to be 5.7; with FM-MEL-2, 0; in the experiment on FM-MEL-3 it was 0.1; with FM-MEL-6, 0; in the experiment with SK-MEL-28, 0.4; in the experiment on SK-MEL-2 it was 0. The drug sensitivity score with WM165 amounted to 5.7; in the experiment with WM852, 7.5.
For `Cn1cc(-c2cnn3c(N)c(Br)c([C@@H]4CCCNC4)nc23)cn1` [MK-8776], the drug sensitivity score in the experiment with Bowes was determined as 0.9; in the experiment on FM-MEL-2, 0; with FM-MEL-3, 1.7; with FM-MEL-6 it was 0; in the experiment on SK-MEL-28 it was 0; with SK-MEL-2, 2. The drug sensitivity score in the experiment with WM165 came out at 0; in the experiment with WM852 it was 1.9.
In the case of `Cc1cnc(-c2ccccc2C(C)C)nc1NCc1ccc(-n2ccnn2)cc1` [ML323], the drug sensitivity score came to 0.6 in the experiment on Bowes; 0 in the experiment with FM-MEL-2; 1.2 in the experiment with FM-MEL-3; 0 in the experiment with FM-MEL-6; 0 in the experiment on SK-MEL-28; 0 with SK-MEL-2. Moreover, the drug sensitivity score in the experiment on WM165 came out at 1.1; in the experiment on WM852 it was 0.9.
On to `O=C(CCNC(=O)c1ccc(OC(F)(F)F)cc1)N[C@@H]1CCCc2ccccc21` [ML390], for which the drug sensitivity score with Bowes came to 0; in the experiment with FM-MEL-2, 0; in the experiment with FM-MEL-3, 6.7; with FM-MEL-6 it was 1.2; in the experiment on SK-MEL-28 it was 2.8; in the experiment on SK-MEL-2 it was 0. In addition, the figures for the drug sensitivity score in the experiment on WM165 and in the experiment with WM852 were 6.8 and 0, respectively.
On to `O=C(Nc1cccc(NC(=O)c2cccc(O)c2O)c1)c1cccc(O)c1O` [MST-312], for which the drug sensitivity score amounted to 11.4 with Bowes; 6.1 in the experiment on FM-MEL-2; 10.3 with FM-MEL-3; 4 in the experiment with FM-MEL-6; 8.4 in the experiment on SK-MEL-28; 6.7 with SK-MEL-2. For the same compound, the values for the drug sensitivity score with WM165 and in the experiment with WM852 were 16 and 6.8, respectively.
Regarding `CNC(=O)[C@@H](NC(=O)[C@H](CC(C)C)[C@H](O)C(=O)NO)C(C)(C)C` [Marimastat], the drug sensitivity score with Bowes, in the experiment on FM-MEL-2, in the experiment on FM-MEL-3, with FM-MEL-6, in the experiment on SK-MEL-28 and with SK-MEL-2 was 0 in each case. For the same compound, the drug sensitivity score in the experiment on WM165 is 0.6; with WM852, 0.
For the compound `Cc1ccc(NC(=O)c2ccc(CN3CCN(C)CC3)cc2)cc1Nc1nc(-c2cccnc2)cs1` [Masitinib], the drug sensitivity score in the experiment on Bowes amounted to 2.3; with FM-MEL-2 it was 6.4; in the experiment on FM-MEL-3, 4.3; in the experiment on FM-MEL-6 it was 4.4; in the experiment with SK-MEL-28, 3.5; with SK-MEL-2, 2.1. Moreover, the values for the drug sensitivity score in the experiment on WM165 and in the experiment on WM852 were 3.3 and 5.7, respectively.
`CC(=O)O[C@]1(C(C)=O)CC[C@H]2[C@@H]3C=C(C)C4=CC(=O)CC[C@]4(C)[C@H]3CC[C@@]21C` [Megestrol acetate]: the drug sensitivity score turned out to be 0 in the experiment on Bowes; 0 in the experiment on FM-MEL-2; 1 in the experiment with FM-MEL-3; 0 in the experiment with FM-MEL-6; 0 with SK-MEL-28; 0 in the experiment on SK-MEL-2. For the same compound, the drug sensitivity score with WM165 and in the experiment on WM852 was 0 throughout.
For the compound `CCN(CC)CCCC(C)Nc1c2ccc(Cl)cc2nc2ccc(OC)cc12` (centres undefined) [Mepacrine], the drug sensitivity score in the experiment with Bowes was determined as 19.6; with FM-MEL-2, 15.1; with FM-MEL-3, 9.9; with FM-MEL-6, 14.2; with SK-MEL-28 it was 10.3; in the experiment on SK-MEL-2 it was 13.6. Besides, the values for the drug sensitivity score in the experiment with WM165 and with WM852 were 17.1 and 17, respectively.
With `S=c1[nH]cnc2nc[nH]c12` [Mercaptopurine], the drug sensitivity score in the experiment with Bowes turned out to be 1.9; with FM-MEL-2, 0.1; with FM-MEL-3, 0; in the experiment with FM-MEL-6, 0.5; in the experiment on SK-MEL-28 it was 3.8; with SK-MEL-2 it was 0. In addition, the drug sensitivity score in the experiment with WM165 is 7.3; with WM852, 5.5.
For the compound `Cc1ccc(C(=O)Nc2ccc(Oc3cc4cnn(C)c4cc3-c3cn[nH]c3)c(F)c2)c(=O)n1-c1ccc(F)cc1` [Merestinib], the drug sensitivity score was 0 in the experiment with Bowes; 0 in the experiment on FM-MEL-2; 0 in the experiment on FM-MEL-3; 0 in the experiment with FM-MEL-6; 0.4 in the experiment with SK-MEL-28; 0 in the experiment with SK-MEL-2. Also, the drug sensitivity score came out at 0 with WM165 and 2.2 in the experiment with WM852.
With `CN(C)C(=N)NC(=N)N` [Metformin], the drug sensitivity score in the experiment on Bowes, in the experiment with FM-MEL-2, with FM-MEL-3, in the experiment on FM-MEL-6, in the experiment with SK-MEL-28 and with SK-MEL-2 was 0 each time. Also, the drug sensitivity score with WM165 and in the experiment with WM852 was 0 in each case.
Regarding `CN(Cc1cnc2nc(N)nc(N)c2n1)c1ccc(C(=O)N[C@@H](CCC(=O)O)C(=O)O)cc1` [Methotrexate], the drug sensitivity score in the experiment on Bowes is 27.7; with FM-MEL-2 it was 0; with FM-MEL-3 it was 0; with FM-MEL-6, 0; with SK-MEL-28 it was 9; in the experiment with SK-MEL-2 it was 0. Further, the drug sensitivity score in the experiment on WM165 was 14.4; with WM852 it was 0.
